Data published in patent publication US7153849B2, “Antidepressant arylpiperazine derivatives of hetrocycle-fused benzodioxans” (Wyeth, priority 2002, dated 2006).

What was measured:
[1] = target: T1, human 5HT1A receptors (Homo sapiens, UniProt P08908); assay: [3H] 8-OH-DPAT displacement from 5HT1A receptor in stably transfected CHO cells; assay type: binding; conditions: CHO cells with human 5HT1A; for Ki: read-out: 5HT1A Receptor Affinity Ki
T1 construct: expressed in transfected cells; host or cells: CHO cells
T1 sequence (P08908 1-422): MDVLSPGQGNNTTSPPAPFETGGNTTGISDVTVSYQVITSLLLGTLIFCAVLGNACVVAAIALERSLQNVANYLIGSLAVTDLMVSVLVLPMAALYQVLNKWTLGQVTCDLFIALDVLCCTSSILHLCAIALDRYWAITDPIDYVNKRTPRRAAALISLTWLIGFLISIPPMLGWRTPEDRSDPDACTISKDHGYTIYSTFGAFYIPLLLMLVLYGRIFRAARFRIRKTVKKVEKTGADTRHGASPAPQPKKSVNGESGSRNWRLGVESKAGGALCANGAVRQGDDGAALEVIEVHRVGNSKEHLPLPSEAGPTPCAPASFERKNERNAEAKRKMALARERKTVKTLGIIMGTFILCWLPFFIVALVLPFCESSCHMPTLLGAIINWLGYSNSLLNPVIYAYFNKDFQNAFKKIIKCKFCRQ
Source text: High affinity for the serotonin 5HT1A receptor was established by testing the claimed compound's ability to displace [^3H] 8-OH-DPAT (dipropylamino-tetralin) from the 5HT1A serotonin receptor following a modification of the procedure of Hall et al., J. Neurochem. 44, 1685 (1985) which utilizes CHO cells stably transfected with human 5HT1A receptors.

[2] = target: T2, serotonin transporter (Rattus norvegicus, UniProt P31652); assay: 3H-paroxetine displacement from rat frontal cortical membranes (serotonin transporter affinity); assay type: binding; conditions: 3H-paroxetine, male rat frontal cortical membranes; for Ki: read-out: 5-HT Transporter Affinity Ki
T2 construct: displace ^3H-paroxetine from male rat frontal cortical membranes; from tissue; host or cells: male rat frontal cortical membranes

[3] = target: T3, cloned human 5HT1A receptors (Homo sapiens, UniProt P08908); assay: 35S-GTPγS binding assay, 5HT1A antagonist activity; assay type: biochemical; conditions: for 5HT1A Function Imax: maximum inhibitory effect, vs 8-OH-DPAT, unit assumed; for IC50: reversal of 8-OH-DPAT (antagonist), read-out: 5HT1A Function IC50
T3 construct: expressed in transfected cells
T3 sequence (P08908 1-422): T1 sequence (P08908 1-422)
Description: Antagonist activity at 5HT1A receptors was established by using a ^35S-GTPγS binding assay similar to that used by Lazareno and Birdsall (Br. J. Pharmacol. 109:1120, 1993), in which the test compound's ability to affect the binding of ^35S-GTPγS to membranes containing cloned human 5HT1A receptors was determined. Agonists produce an increase in binding whereas antagonists produce no increase but rather reverse the effects of the standard agonist 8-OH-DPAT. The test compound's maximum inhibitory effect is represented as the Imax, while its potency is defined by the IC50.

T2 sequence (P31652 whole entry): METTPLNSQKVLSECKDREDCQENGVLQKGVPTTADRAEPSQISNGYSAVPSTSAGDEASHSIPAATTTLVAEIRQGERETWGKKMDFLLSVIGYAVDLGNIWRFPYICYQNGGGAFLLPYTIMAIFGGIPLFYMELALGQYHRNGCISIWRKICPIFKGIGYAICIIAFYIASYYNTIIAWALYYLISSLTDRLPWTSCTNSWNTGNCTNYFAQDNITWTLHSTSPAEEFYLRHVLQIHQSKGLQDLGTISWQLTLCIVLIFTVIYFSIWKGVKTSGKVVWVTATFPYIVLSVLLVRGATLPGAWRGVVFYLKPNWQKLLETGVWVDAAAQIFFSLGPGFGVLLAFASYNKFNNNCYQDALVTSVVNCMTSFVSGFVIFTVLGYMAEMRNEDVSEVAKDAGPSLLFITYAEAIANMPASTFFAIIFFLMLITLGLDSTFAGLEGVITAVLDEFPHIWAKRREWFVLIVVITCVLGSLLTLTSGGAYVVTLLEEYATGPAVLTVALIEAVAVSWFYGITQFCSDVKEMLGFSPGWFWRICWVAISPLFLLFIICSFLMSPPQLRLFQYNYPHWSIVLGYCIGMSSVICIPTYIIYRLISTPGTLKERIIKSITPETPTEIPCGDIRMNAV

5HT1A Receptor Affinity, % @ 1 μM [1] | 5-HT Transporter Affinity, % @ 1 μM [2] [% @ 1 μM] | melting point [°C] | 5HT1A Function Imax [3] [%] | IC50 [3] [nM] | Ki [2] [nM] | Ki [1] [nM] | SMILES
80% @ 1 μM | – | 90 to 91 | 84 | 1720 | 35.5 | – | COc1cccc(N2CCN(C[C@H]3COc4ccc5nc(C)ccc5c4O3)CC2)c1 [Example 5, (2S)-2-{[4-(3-methoxyphenyl)piperazin-1-yl]methyl}-8-methyl-2,3-dihydro[1,4]dioxino[2,3-f]quinoline]
81% A1 μM | 0 | 164 to 165 | 37 | 3940 | – | – | COc1ccc(N2CCN(C[C@H]3COc4ccc5nc(C)ccc5c4O3)CC2)cc1 [Example 6, (2S)-2-{[4-(4-methoxyphenyl)piperazin-1-yl]methyl}-8-methyl-2,3-dihydro[1,4]dioxino[2,3-f]quinoline]
– | – | 123 to 124 | 100 | 3110 | 21.6 | 31.4 | Cc1ccc2c3c(ccc2n1)OC[C@H](CN1CCN(c2cccc(C(F)(F)F)c2)CC1)O3 [Example 8, (2S)-8-methyl-2-[4-(3-trifluoromethyl-phenyl)piperazin-1-ylmethyl]-2,3-dihydro[1,4]dioxine[2,3-f]quinoline]
– | – | 118 to 120 | 84 | 345 | 85.5 | 18.2 | Cc1ccc2c3c(ccc2n1)OC[C@H](CN1CCN(c2ccc(C)c(C)c2)CC1)O3 [Example 11, (2S)-2-{[4-(3,4-dimethylphenyl)piperazin-1-yl]methyl}-8-methyl-2,3-dihydro[1,4]dioxino[2,3-f]quinoline]

The remaining lines, values behind:

SMILES | 5HT1A Receptor Affinity, % @ 1 μM [1] | 5-HT Transporter Affinity, % @ 1 μM [2] [% @ 1 μM] | melting point [°C] | 5HT1A Function Imax [3] [%] | IC50 [3] [nM] | Ki [2] [nM] | Ki [1] [nM]
COc1ccccc1N1CCN(C[C@H]2COc3ccc4nc(C)ccc4c3O2)CC1 [Example 4, (2S)-2-{[4-(2-methoxyphenyl)piperazin-1-yl]methyl}-8-methyl-2,3-dihydro[1,4]dioxino[2,3-f]quinoline] | 95% @ 1 μM | 34 | 44 to 47 | 87 | 994 | – | –
Cc1ccc2c3c(ccc2n1)OC[C@H](CN1CCN(c2cccc(C)c2C)CC1)O3 [Example 10, (2S)-2-{[4-(2,3-dimethylphenyl)piperazin-1-yl]methyl}-8-methyl-2,3-dihydro[1,4]dioxino[2,3-f]quinoline] | – | – | 112 to 113 | 98 | 403 | 88.5 | 82.5
Cc1ccc2c3c(ccc2n1)OC[C@H](CN1CCN(c2ccc4ccccc4n2)C[C@@H]1C)O3 [Example 19, (2S)-8-methyl-2-{[(2S)-2-methyl-4-quinolin-2-ylpiperazin-1-yl]methyl}-2,3-dihydro[1,4]dioxino[2,3-f]quinoline] | – | – | 141 to 144 | 90 | 3000 | 123 | 167
Cc1ccc2c3c(ccc2n1)OC[C@H](CN1CCN(c2ccc4ccccc4n2)C[C@H]1C)O3 [Example 21, (2S)-8-methyl-2-{[(2R)-2-methyl-4-quinolin-2-ylpiperazin-1-yl]methyl}-2,3-dihydro[1,4]dioxino[2,3-f]quinoline] | – | – | 78 to 82 | 83.5 | 867 | 32.8 | 5.53
Cc1ccc2c3c(ccc2n1)OC[C@H](CN1CCN(c2ccc4cc(Br)ccc4n2)CC1)O3 [Example 27, (2S)-2-{[4-(6-Bromoquinolin-2-yl)piperazin-1-yl]methyl}-8-methyl-2,3-dihydro[1,4]dioxino[2,3-f]quinoline] | – | – | 153 to 154 | 82 | 2410 | 101 | 17.1
